Assay results from patent publication US20110071225A1, “METHOD FOR OBTAINING A SEQUOYITOL-CONTAINING EXTRACT FROM GENUS NEPHROLEPIS AND USES THEREOF” (GUANGZHOU WELMAN NEW DRUG R&D CO., LTD., priority 2008, published 2011).

Tests used:
diabetes models = settings: sequoyitol isolated from Taxus chinensis; cited from earlier work
[1] = sequoyitol isolated from Taxus chinensis; cited from earlier work
Solubility in water = format: physicochemical
Procedure: Sequoyitol was dissolved in water and sterilized by filtration. Solutions for injection were prepared according to the operation procedure of solutions for injection. Powder for injection was prepared according to the operation procedure of lyophilized powder for injection.

[2] = tested on: elevated level of blood glucose induced by alloxan in mice; assay: Effect on the elevated level of blood glucose induced by alloxan in mice; format: in vivo; settings: 75 mg/kg via gavage, 7 days
Procedure: 80 male mice weighed 22˜25 g were used. 20 mice were randomly taken as the blank group. Others were injected intravenously with alloxan via caudal vein at a dose of 65 mg/kg body weight, and then modeled according to established methods. The mice were divided into 3 groups according to their level of blood glucose, in which 2 groups were administered via gavage with 60 mg/kg of the Nephrolepis auriculata extract, 75 mg/kg of phenformin (positive control) respectively for consecutive 7 days, in a volume of 0.1 ml/10 g body weight. The same volume of distilled water was administered to the blank group and the control group. Blood glucose was determined using glucose oxidase method.

In the case of CO[C@H]1[C@H](O)[C@@H](O)[C@@H](O)[C@@H](O)[C@@H]1O [Sequoyitol, sequoyitol], the Absorption of glucose (diabetes models) is listed as “inhibits”, the “Breakdown of hepatic glycogen” value (diabetes models) is listed as “inhibits” and the “High glycemia in diabetes models” value (diabetes models) is listed as “remarkably decreases”. The Toxicity [1] was “very low toxicity” and the Solubility in water (Solubility in water) was “well soluble”.

In the case of [H]/N=C(/N)N/C(=N/[H])NCCc1ccccc1 [phenformin], the “Decrease of hyperglycemia induced by alloxan vs control group” value [2] is reported as 152.8 mg/dL.
